Measurements taken from patent publication US12187722B2, “Small molecule inhibitors of TEAD transcription factors” (The General Hospital Corporation, priority 2019, dated 2025).
“And” between values parts separate entries of the source, which are not always exact repeats. Identical values can stand only once. Like-named read-outs stand apart in the source and are kept apart here.

Tests used:
TEAD2 [1] = molecular target: T1, TEAD2 (Homo sapiens (Human), UniProt Q15562); experiment: In vitro palmitoylation (TEAD2 autopalmitoylation, streptavidin blot); format: biochemical; conditions: compound at 10 μM
Outline: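 Recombinant GST- or His6-TEAD2 (500 ng) preincubated 15 min with compound, then 30 min with 1 μM alkyne palmitoyl-CoA; click-labelled with biotin-azide (1 h, RT). Streptavidin-HRP blot band intensity quantified after SDS-PAGE; inhibition of autopalmitoylation relative to DMSO control.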

TEAD2 [2] = molecular target: T1, TEAD2; experiment: CMP assay (CPM fluorescence detection of free CoA); format: biochemical
Procedure: 7-Diethylamino-3-(4′-Maleimidylphenyl)-4-Methylcoumarin (CPM), which reacts with thiol of CoA liberated in the enzymatic reaction, and gives fluorescent signal (excitation ˜350-380, emission-460-480). The assay detects the product (free CoA) which is produced from palmitoyl-CoA as a method to detect the enzymatic activity. Test compounds that inhibit TEAD activity are therefore able to block the CMP fluorescent signal.
TEAD2/4 protein (10 μL of a 50 ng/μL solution) and a solution the test compound (0.5 μL, variable concentration) were pre-incubated for 30 min at r.t. A mixture prepared from MES pH 6.4 buffer (6.5 μL of a 50 mM solution), EDTA (1 μL of a 20 mM solution), palmitoyl-CoA (1 μL of a 20 μM solution), and 7-diethylamino-3-(4′-maleimidylphenyl)-4-methylcoumarin (1 μL of a 10 μM solution) was added and the resulting mixture was mixed well using a pipette. The solution was then incubated at r.t. for 30-120 min. in the dark, and fluorescence was detected at […] every 30 min. until the fluorescence signal is saturated. An IC50 for the ability of the compound to inhibit fluorescence is calculated from the results.

[3] = Table 3, unit inferred, read-out: TEAD2 palmitoylation IC50

T1 sequence (Q15562 whole entry): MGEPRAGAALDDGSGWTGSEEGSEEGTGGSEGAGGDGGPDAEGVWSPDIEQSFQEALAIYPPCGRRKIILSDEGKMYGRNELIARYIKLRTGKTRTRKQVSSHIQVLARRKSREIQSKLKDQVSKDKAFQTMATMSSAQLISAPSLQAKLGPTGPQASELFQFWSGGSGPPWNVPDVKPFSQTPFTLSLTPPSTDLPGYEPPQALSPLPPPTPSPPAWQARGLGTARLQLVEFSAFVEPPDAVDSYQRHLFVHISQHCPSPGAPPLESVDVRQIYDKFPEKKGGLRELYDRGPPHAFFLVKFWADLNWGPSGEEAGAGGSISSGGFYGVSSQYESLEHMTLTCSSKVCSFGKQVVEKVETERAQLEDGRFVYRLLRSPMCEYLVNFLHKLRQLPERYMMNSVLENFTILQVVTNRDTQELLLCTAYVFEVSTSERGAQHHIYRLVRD

inhibition at 10 µM (TEAD2 [1]; Table 2) [%] | Compound | further results
 | C=CC(=O)c1ccccc1Nc1cccc(Nc2ccc(C34CC5CC(CC(C5)C3)C4)cc2)c1 | inhibition at 10 µM (TEAD2 [1]): 70%; IC50 (TEAD2 [2]; CMP assay, read-out: CMP IC50): 5090 nM
 | COc1ccc(Nc2ccc(N(C)c3ccc(C(F)(F)F)cc3)cc2)c(C(=O)O)c1 [CP-521] | inhibition at 10 µM (TEAD2 [1]; Table 3): 93%; IC50 (TEAD2 [2]; [3]): 1450 nM
 | COc1ccc(Nc2ccc(N(C)c3ccc(C4CCCCC4)cc3)cc2)c(C(=O)O)c1 [CP-522] | inhibition at 10 µM (TEAD2 [1]; Table 3): 96%; IC50 (TEAD2 [2]; [3]): 1530 nM
 | COc1ccc(Nc2ccc(N(C)c3ccc(S(F)(F)(F)(F)F)cc3)cc2)c(C(=O)O)c1 [CP-528] | inhibition at 10 µM (TEAD2 [1]; Table 3): 76%; IC50 (TEAD2 [2]; [3]): 380 nM
 | COc1ccc(Nc2ccc(N(C)c3ccc(C4CC5CCC4C5)cc3)cc2)c(C(=O)O)c1 (stereo not drawn) [CP-538] | inhibition at 10 µM (TEAD2 [1]; Table 3): 85%; IC50 (TEAD2 [2]; [3]): 680 nM
 | COc1ccc(Nc2ccc(N(C)c3ccc(OC(F)(F)F)cc3)cc2)c(C(=O)O)c1 [CP-548] | inhibition at 10 µM (TEAD2 [1]; Table 3): 86%; IC50 (TEAD2 [2]; [3]): 450 nM
 | COc1ccc(Nc2ccc(N(C)c3ccc(C4CCCCC4)cc3)cc2F)c(C(=O)O)c1 [CP-549] | inhibition at 10 µM (TEAD2 [1]; Table 3): 85%; IC50 (TEAD2 [2]; [3]): 2400 nM
 | COc1ccc(Nc2ccc(N(C)c3ccc(C45CC6CC(CC(C6)C4)C5)cc3)cc2C)c(C(=O)O)c1 [CP-551] | inhibition at 10 µM (TEAD2 [1]; Table 3): 91%; IC50 (TEAD2 [2]; [3]): 2 nM
 | COc1ccc(Nc2ccc(N(C)c3ccc(OCC(F)(F)F)cc3)cc2)c(C(=O)O)c1 [CP-553] | inhibition at 10 µM (TEAD2 [1]; Table 3): 100%; IC50 (TEAD2 [2]; [3]): 590 nM
 | COc1ccc(Nc2ccc(N(C)c3ccc(C)cc3)cc2)c(C(=O)O)c1 [CP-554] | inhibition at 10 µM (TEAD2 [1]; Table 3): 96%; IC50 (TEAD2 [2]; [3]): 10 nM
 | COc1ccc(Nc2ccc(N(C)c3ccc(N4CCCCC4)cc3)cc2)c(C(=O)O)c1 [CP-555] | inhibition at 10 µM (TEAD2 [1]; Table 3): 100%; IC50 (TEAD2 [2]; [3]): 10 nM
 | COc1ccc(Nc2ccc(N(C)c3ccc(C4CCCCC4)cc3)cc2C)c(C(=O)O)c1 [CP-560] | inhibition at 10 µM (TEAD2 [1]; Table 3): 90%; IC50 (TEAD2 [2]; [3]): 11 nM
 | COc1ccc(Nc2ccc(N(C)c3ccc(OCC(F)(F)F)cc3)cc2C)c(C(=O)O)c1 [CP-565] | inhibition at 10 µM (TEAD2 [1]; Table 3): 100%; IC50 (TEAD2 [2]; [3]): 510 nM
 | O=C(O)c1ccccc1Nc1ccc(Oc2ccc(C3CCCCC3)cc2Cl)nc1 [CP-566] | inhibition at 10 µM (TEAD2 [1]; Table 3): 99%; IC50 (TEAD2 [2]; [3]): 380 nM
 | COc1ccc(Nc2ccc(Oc3ccc(C45CC6CC(C)(CC(C)(C6)C4)C5)cc3Cl)cc2F)c(C(=O)O)c1 [CP-570] | inhibition at 10 µM (TEAD2 [1]; Table 3): 73%; IC50 (TEAD2 [2]; [3]): 650 nM
 | COc1ccc(Nc2ccc(N(C)c3ccc(S(F)(F)(F)(F)F)cc3)cc2C)c(C(=O)O)c1 [CP-571] | inhibition at 10 µM (TEAD2 [1]; Table 3): 94%; IC50 (TEAD2 [2]; [3]): 360 nM
 | COc1ccc(Nc2ccc(N(C)c3ccc(C4CCC(C)CC4)cc3)cc2)c(C(=O)O)c1 (stereo not drawn) [CP-583] | % of inhibition of TEAD2 palmitoylation at 10 μM (TEAD2 [1]; Table 3): 96%; IC50 (TEAD2 [2]; [3]): 230 nM
 | COc1ccc(Nc2ccc(N(C)c3ccc(C4CCC(C)CC4)cc3)cc2)c(C(=O)O)c1 (stereo not drawn) [CP-584] | % of inhibition of TEAD2 palmitoylation at 10 μM (TEAD2 [1]; Table 3): 85%; IC50 (TEAD2 [2]; [3]): 210 nM
98 | O=C(Nc1ccccc1C(=O)O)c1cccc(Nc2ccc(C34CC5CC(CC(C5)C3)C4)cc2)c1 [Compound 239] | % of inhibition of TEAD2 palmitoylation at 10 μM (TEAD2 [1]; Table 2): 100%
62 | O=C(O)c1cccc(NC(=O)c2cccc(Nc3ccc(C45CC6CC(CC(C6)C4)C5)cc3)c2)c1 [Compound 240] | 

inhibition at 10 µM (TEAD2 [1]; Table 2) [%] | Compound | further results
100 | O=C(Nc1ccc(C23CC4CC(CC(C4)C2)C3)cc1Cl)c1cccc(Nc2ncccc2C(=O)O)c1 [Compound 241] | 
 | O=C(Nc1ccc(C23CC4CC(CC(C4)C2)C3)cc1Cl)c1cccc(Nc2ccccc2C(=O)O)c1 [Compound 242] | % of inhibition of TEAD2 palmitoylation at 10 μM (TEAD2 [1]; Table 2): 35% and 58%
67 | CN(c1ccc(CC(=O)Nc2ccccc2C(=O)O)cc1)c1ccc(C23CC4CC(CC(C4)C2)C3)cc1 [Compound 243] | 
8 | c1ccc2c(c1)ccn2-c1ccc(Nc2ccc(C34CC5CC(CC(C5)C3)C4)cc2)cc1 [Compound 244] | 
87 | O=C(O)/C=C/c1ccccc1Nc1ccc(Nc2ccc(C34CC5CC(CC(C5)C3)C4)cc2)cc1 [Compound 245] | 
99 | O=C(O)c1ccccc1Nc1cccc(S(=O)(=O)Nc2ccc(C34CC5CC(CC(C5)C3)C4)cc2)c1 [Compound 246] | 
95 | O=C(Nc1ccc(C23CC4CC(CC(C4)C2)C3)cc1)c1ccc(Cl)c(Nc2ncccc2C(=O)O)c1 [Compound 247] | 
32 | COc1cccc(Nc2cccc(C(=O)Nc3ccc(C45CC6CC(CC(C6)C4)C5)cc3)c2)c1C(=O)O [Compound 248] | 
1 | COc1cc(Nc2ccc(Nc3ccc(C45CC6CC(CC(C6)C4)C5)cc3)cc2)c(C(=O)O)c(OC)c1 [Compound 249] | 
27 | COc1ccc(C(=O)O)c(Nc2ccc(Nc3ccc(C45CC6CC(CC(C6)C4)C5)cc3)cc2)c1 [Compound 251] | 
50 | CCCCN(c1ccccc1)c1ccc(Nc2ccc(Nc3ncccc3C(=O)O)cc2)cc1 [Compound 255] | 
46 | CCCCN(CCCC)C(=O)c1ccc(Nc2ccc(Nc3ncccc3C(=O)O)cc2)cc1 [Compound 256] | 
55 | O=C(NC12CC3CC(CC(C3)C1)C2)c1ccc(Nc2ccc(Nc3ncccc3C(=O)O)cc2)cc1 [Compound 257] | 
0 | CCCCN(c1ccccc1)c1ccc(Nc2ccc(Nc3ccccc3C(=O)O)cc2)c(Cl)c1 [Compound 258] | 
83 | CCCCN(c1ccccc1)c1ccc(Nc2ccc(Nc3ncccc3C(=O)O)cc2)c(Cl)c1 [Compound 259] | 
71 | O=C(O)c1ccccc1Nc1ccc(S(=O)(=O)Nc2ccc(C34CC5CC(CC(C5)C3)C4)cc2Cl)cc1 [Compound 260] | 
98 | O=C(O)c1cccnc1Nc1ccc(S(=O)(=O)Nc2ccc(C34CC5CC(CC(C5)C3)C4)cc2Cl)cc1 [Compound 261] | 
85 | CC12CC3CC(C)(C1)CC(c1ccc(NC(=O)c4cccc(Nc5ncccc5C(=O)O)c4)c(Cl)c1)(C3)C2 [Compound 262] | 
0 | CC12CC3CC(C)(C1)CC(c1ccc(NS(=O)(=O)c4ccc(Nc5ccccc5C(=O)O)cc4)c(Cl)c1)(C3)C2 [Compound 264] | 
78 | CC12CC3CC(C)(C1)CC(c1ccc(NS(=O)(=O)c4ccc(Nc5ncccc5C(=O)O)cc4)c(Cl)c1)(C3)C2 [Compound 265] | 

inhibition at 10 µM (TEAD2 [1]; Table 2) [%] | Compound | further results
81 | CCCCN(c1ccccc1)c1ccc(NC(=O)c2cccc(Nc3ncccc3C(=O)O)c2)cc1 [Compound 266] | 
36 | O=C(NCc1ccc(C23CC4CC(CC(C4)C2)C3)cc1)c1ccc(Nc2ccccc2C(=O)O)cc1 [Compound 267] | 
10 | O=C(NCc1ccc(C23CC4CC(CC(C4)C2)C3)cc1)c1cccc(Nc2ccccc2C(=O)O)c1 [Compound 268] | 
100 | COCCOc1ccc(Nc2ccc(N(C)c3ccc(C45CC6CC(CC(C6)C4)C5)cc3)cc2)c(C(=O)O)c1 [Compound 269] | 
77 | NC(=O)c1ccccc1Nc1ccc(Nc2ccc(C34CC5CC(CC(C5)C3)C4)cc2Cl)cc1 [compound 272] | 
52 | CNC(=O)c1ccccc1Nc1ccc(Nc2ccc(C34CC5CC(CC(C5)C3)C4)cc2Cl)cc1 [compound 276] | 
98 | O=C(O)c1ccccc1C(=O)Nc1ccc(Nc2ccc(C34CC5CC(CC(C5)C3)C4)cc2Cl)cc1 [compound 279] | 
17 | NC1(C(=O)Nc2ccc(Nc3ccc(C45CC6CC(CC(C6)C4)C5)cc3Cl)cc2)CC1 [compound 280] | 
99 | O=C(O)c1ccccc1Nc1cnc(Nc2ccc(C34CC5CC(CC(C5)C3)C4)cc2Cl)cn1 [compound 283] | 
14 | O=C(O)c1ccccc1Nc1ncc(Nc2ccc(C34CC5CC(CC(C5)C3)C4)cc2Cl)cn1 [compound 284] | 
 | O=C(O)c1ccccc1C(=O)Nc1ccc(Nc2ccc(C34CC5CC(CC(C5)C3)C4)cc2Cl)cc1 [compound 286, 2-((4-(4-((3r,5r,7r)-adamantan-1-yl)-2-chlorophenyl)amino)phenyl)carbamoyl) benzoic acid] | % of inhibition of TEAD2 palmitoylation at 10 μM (TEAD2 [1]; Table 2, listed as 293): 86%
88 | O=C(O)C1=C(C(=O)Nc2ccc(C34CC5CC(CC(C5)C3)C4)cc2)CCC1 [compound 289] | 
69 | O=C(O)C1=C(C(=O)Nc2ccc(Nc3ccc(C45CC6CC(CC(C6)C4)C5)cc3Cl)cc2)CCC1 [compound 290] | 
97 | O=C(O)c1ccccc1C(=O)Nc1cccc(Nc2ccc(C34CC5CC(CC(C5)C3)C4)cc2)c1 [compound 292] | 
47 | COc1ccc(Nc2ccc(N(C)c3ccc(C(F)(F)F)cc3)cc2)c(C(N)=O)c1 [compound 429] | 
63 | CNC(=O)c1cc(OC)ccc1Nc1ccc(N(C)c2ccc(C(F)(F)F)cc2)cc1 [compound 430] | 
37 | COc1ccc(Nc2ccc(N(C)c3ccc(C(F)(F)F)cc3)cc2)c(C(=O)N(C)C)c1 [compound 431] | 
75 | O=C(O)c1ccccc1Nc1cnc(Oc2ccc(C34CC5CC(CC(C5)C3)C4)cc2Cl)cn1 [compound 440] | 
79 | O=C(O)c1ccccc1Nc1cnc(Oc2ccc(C3CCCCC3)cc2Cl)cn1 [compound 441] | 
